According to patent US6525099B1, “N-substituted sulfonamide derivatives” (Eli Lilly and Company, priority 1998, dated 2003):

How the values were obtained:
human GluR4B receptor = target: T1, human GluR4B receptor (Homo sapiens, UniProt P48058); test: potentiation of glutamate receptor-mediated response in HEK cells stably expressing human GluR4B (Fluo-3 calcium fluorescence); type: cell-based; conditions: human GluR4B receptor expressed in HEK 293 cells
T1 construct: expressed in transfected cells
From the text: The ability of compounds of formula I to potentiate glutamate receptor-mediated response may be determined using fluorescent calcium indicator dyes (Molecular Probes, Eugene, Oreg., Fluo-3) and by measuring glutamate-evoked efflux of calcium into GluR4 transfected HEK293 cells, as described in more detail below.
In one test, 96 well plates containing confluent monolayers of HEK cells stably expressing human GluR4B (obtained as described in European Patent Application Publication Number EP-A1-583917) are prepared. The tissue culture medium in the wells is then discarded, and the wells are each washed once with 200 μl of buffer (glucose, 10 mM, sodium chloride, 138 mM, magnesium chloride, 1 mM, potassium chloride, 5 mM, calcium chloride, 5 mM, N-[2-hydroxyethyl]-piperazine-N-[2-ethanesulfonic acid], 10 mM, to pH 7.1 to 7.3). […]
Each test is then performed as follows. […] A second fluorescent reading is taken after 5 minutes incubation. 15 μl of 400 μM glutamate solution is then added to each well (final glutamate concentration 100 μM), and a third reading is taken. The activities of test compounds and cyclothiazide solutions are determined by subtracting the second from the third reading (fluorescence due to addition of glutamate in the presence or absence of test compound or cyclothiazide) and are expressed relative to enhance fluorescence produced by 100 μM cyclothiazide.

T1 sequence (P48058 21-902): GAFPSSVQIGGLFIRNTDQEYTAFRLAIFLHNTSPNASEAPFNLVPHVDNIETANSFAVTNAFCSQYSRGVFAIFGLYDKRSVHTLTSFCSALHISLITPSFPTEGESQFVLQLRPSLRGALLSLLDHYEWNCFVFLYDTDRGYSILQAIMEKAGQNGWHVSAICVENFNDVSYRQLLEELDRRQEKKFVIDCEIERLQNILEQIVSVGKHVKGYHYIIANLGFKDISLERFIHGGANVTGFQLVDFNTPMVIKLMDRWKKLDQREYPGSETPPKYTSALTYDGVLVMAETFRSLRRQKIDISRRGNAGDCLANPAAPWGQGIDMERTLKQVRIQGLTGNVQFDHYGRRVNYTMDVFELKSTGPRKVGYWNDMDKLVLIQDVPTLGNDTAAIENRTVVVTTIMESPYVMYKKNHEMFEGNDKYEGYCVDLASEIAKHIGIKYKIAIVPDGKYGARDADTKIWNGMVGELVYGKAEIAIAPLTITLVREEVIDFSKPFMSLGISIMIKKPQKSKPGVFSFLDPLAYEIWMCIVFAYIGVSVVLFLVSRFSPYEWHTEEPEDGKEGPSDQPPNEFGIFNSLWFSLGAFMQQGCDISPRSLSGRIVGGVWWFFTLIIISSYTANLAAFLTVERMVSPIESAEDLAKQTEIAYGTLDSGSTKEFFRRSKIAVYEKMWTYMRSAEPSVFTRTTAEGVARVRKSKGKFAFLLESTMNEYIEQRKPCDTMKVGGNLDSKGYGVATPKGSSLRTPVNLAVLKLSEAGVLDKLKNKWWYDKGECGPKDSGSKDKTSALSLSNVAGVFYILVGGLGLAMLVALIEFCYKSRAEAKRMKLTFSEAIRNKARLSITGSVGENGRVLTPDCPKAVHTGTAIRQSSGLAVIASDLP

Structure (SMILES) | melting point [°C] | potentiation of agonist-induced excitability (human GluR4B receptor)
CC(C)(C)c1ccc(C2(CNS(=O)(=O)C(F)(F)F)CC2)cc1 | 82 to 84 | 
CC(C)S(=O)(=O)NCC1(c2ccc(C(C)(C)C)cc2)CC1 | 87 to 89.5 | 
NS(=O)(=O)c1cc2c(cc1Cl)NC(C1CC3C=CC1C3)NS2(=O)=O (stereo not drawn) [cyclothiazide] |  | potentiate agonist-induced excitability of human GluR4B receptor
